Common to all, as to assay type: functional, cell-based
For one assay, the system named is KB. In words: Cytotoxicity against human KB cells after 72 hrs by MTT assay.
The subject of another assay is HepG2. The assay can be described thus: Cytotoxicity against human HepG2 cells after 72 hrs by MTT assay. Conditions: HepG2, 72 h.
Another assay concerns OVCAR-3. In words: Cytotoxicity against human OVCAR-3 cells after 72 hrs by MTT assay. As to conditions: OVCAR-3, 72 h.

As to `CCNc1nc2c(ncn2-c2ccccc2)c(=O)n1-c1ccccc1`, the IC50 with KB, in the assay on HepG2 and with OVCAR-3 was greater than 100 µM in each case.

Take `CCCCCN(CCCCC)c1nc2c(ncn2-c2ccccc2)c(=O)n1-c1ccc(Cl)cc1`: the IC50 was 10.6 µM in the assay on KB, greater than 100 µM in the assay on HepG2 and greater than 100 µM in the assay on OVCAR-3.

As for `CN(C)c1nc2c(ncn2-c2ccccc2)c(=O)n1-c1ccccc1`, the values for the IC50 in the assay on KB, in the assay with HepG2 and with OVCAR-3 were 83.8 µM, greater than 100 µM and greater than 100 µM, respectively.

On to `CCCCN(CCCC)c1nc2c(ncn2-c2ccccc2)c(=O)n1-c1ccccc1`, for which the IC50 with KB came to 9.5 µM; in the assay with HepG2 it was 20.4 µM; with OVCAR-3 it was 10 µM.

As to `O=c1c2ncn(-c3ccccc3)c2nc(N2CCCCC2)n1-c1ccc(Cl)cc1`, the IC50 was 72.8 µM in the assay on KB, greater than 100 µM in the assay with HepG2 and greater than 100 µM in the assay with OVCAR-3.

As for `CCCCNc1nc2c(ncn2-c2ccccc2)c(=O)n1-c1ccc(Cl)cc1`, the IC50 in the assay on KB was found to be 37.7 µM; with HepG2, 77.6 µM; with OVCAR-3, 94.8 µM.

For `CC(C)N(c1nc2c(ncn2-c2ccccc2)c(=O)n1-c1ccccc1)C(C)C`, the values for the IC50 in the assay with KB, with HepG2 and with OVCAR-3 were 53.5 µM, greater than 100 µM and greater than 100 µM, respectively.

Take `CNc1nc2c(ncn2-c2ccccc2)c(=O)n1-c1ccccc1`: the IC50 in the assay on KB, in the assay with HepG2 and with OVCAR-3 was greater than 100 µM each time.

Consider `CNc1nc2c(ncn2-c2ccccc2)c(=O)n1-c1ccc(Cl)cc1`, for which the IC50 in the assay on KB, in the assay with HepG2 and with OVCAR-3 was greater than 100 µM throughout.

On to `O=c1c2ncn(-c3ccccc3)c2nc(NCc2ccccc2)n1-c1ccc(Cl)cc1`, for which the IC50 in the assay with KB stood at 34.3 µM; in the assay on HepG2, 62.1 µM; with OVCAR-3 it was 46.7 µM.
